Test results published in ChEMBL document CHEMBL5331077, “Combining pharmacophore models derived from DNA-encoded chemical libraries with structure-based exploration to predict Tankyrase 1 inhibitors” (Eur J Med Chem, 2023).
The source made the active and inactive calls. No cut-off for these calls is given here.

Target: T1, Protein mono-ADP-ribosyltransferase PARP10 (Homo sapiens) (UniProt Q53GL7)
T1 sequence (whole entry): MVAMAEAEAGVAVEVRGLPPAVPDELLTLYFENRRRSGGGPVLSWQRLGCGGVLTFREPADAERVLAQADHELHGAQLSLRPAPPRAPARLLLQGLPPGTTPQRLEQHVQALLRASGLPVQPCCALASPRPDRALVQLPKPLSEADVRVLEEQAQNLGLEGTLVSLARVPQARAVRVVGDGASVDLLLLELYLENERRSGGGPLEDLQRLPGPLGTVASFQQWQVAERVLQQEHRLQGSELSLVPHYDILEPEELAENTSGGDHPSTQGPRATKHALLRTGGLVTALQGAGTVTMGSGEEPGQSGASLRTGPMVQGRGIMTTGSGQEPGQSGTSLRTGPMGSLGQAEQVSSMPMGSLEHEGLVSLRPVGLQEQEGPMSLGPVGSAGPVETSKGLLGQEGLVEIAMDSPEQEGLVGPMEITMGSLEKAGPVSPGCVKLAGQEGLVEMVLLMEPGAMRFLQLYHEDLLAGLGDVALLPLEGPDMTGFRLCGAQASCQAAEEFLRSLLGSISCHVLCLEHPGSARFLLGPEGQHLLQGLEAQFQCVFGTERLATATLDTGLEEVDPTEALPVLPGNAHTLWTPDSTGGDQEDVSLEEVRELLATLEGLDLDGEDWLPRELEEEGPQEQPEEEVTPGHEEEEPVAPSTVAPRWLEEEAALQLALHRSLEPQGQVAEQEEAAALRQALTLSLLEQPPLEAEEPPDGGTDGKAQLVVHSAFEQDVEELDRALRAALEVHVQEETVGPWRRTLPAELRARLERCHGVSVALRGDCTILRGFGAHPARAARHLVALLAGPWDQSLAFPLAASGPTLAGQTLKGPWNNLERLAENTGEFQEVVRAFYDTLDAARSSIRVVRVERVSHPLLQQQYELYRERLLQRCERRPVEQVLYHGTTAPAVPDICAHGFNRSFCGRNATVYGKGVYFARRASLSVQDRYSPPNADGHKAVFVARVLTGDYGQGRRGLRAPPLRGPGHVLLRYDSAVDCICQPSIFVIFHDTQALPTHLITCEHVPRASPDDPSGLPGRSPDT
Test: Inhibition of PARP10 (unknown origin)

In the case of Cc1cc(OCC(=O)NCCNC(=O)c2cccc(COc3ccccc3C(N)=O)c2)c2c3c(c(=O)oc2c1)CCC3, the inhibition is reported as “Active”.
With CNC(=O)[C@H](CNC(=O)CCn1c(=O)[nH]c(=O)c2ccccc21)NC(=O)c1cnc2ccccc2c1 the inhibition was “inactive”.
